The record followed here is patent US11731944B2, “SARS-CoV-2 inhibitors for treating coronavirus infections” (priority 2021, dated 2023).

One experiment concerns SARS-CoV-2. As to the kind of experiment: In vitro antiviral cell-based assay (live SARS-CoV-2), plaque reduction assay in VeroE6 cells. The note with it: Severe acute respiratory syndrome coronavirus 2, Vero C1008, footnote key printed as IC50 (nM). Background: Plaque reduction counts the foci of infection that form in a cell layer.
As for `C[C@](C(=O)NC1CCC(F)(F)CC1)(c1cncnc1)N(C(=O)[C@H](F)Cl)c1ccc(-c2cncs2)cc1` (single isomer, unassigned) [Example 1a], the EC50 (usually the concentration at which the effect is half-maximal) is 100 to 1000 nM.

In a further experiment the target is SARS-CoV-2 MPRO (Severe acute respiratory syndrome coronavirus 2 (2019-nCoV) (SARS-CoV-2), UniProt P0DTD1). Description: SARS-CoV-2 Mpro enzymatic assay (FRET substrate cleavage). The class given is biochemical. The conditions noted are these: C-His6-tagged SARS-CoV-2 MPRO 25 nM, 30 min pre-incubation at RT, 60 min at 30° C., 10 doses from 25 μM; read-out: M pro IC50.
On to `C[C@](C(=O)NC1CCC(F)(F)CC1)(c1cncnc1)N(C(=O)[C@H](F)Cl)c1ccc(-c2cncs2)cc1` (single isomer, unassigned) [Example 1a], for which the half-inhibitory concentration (IC50) (in general, the concentration needed to halve the response being measured) was < 100 nM.

Regarding `C[C@](C(=O)NC1CCC(F)(F)CC1)(c1cncc(F)c1)N(C(=O)[C@H](F)Cl)c1ccc(-c2nccs2)cc1` [Example 102a], the IC50 is < 100 nM. The same measure, in the same setting: the same measure for `C[C@](C(=O)Nc1ccc(Cl)cc1F)(c1cncnc1)N(C(=O)[C@H](F)Cl)c1ccc(OC(F)(F)F)cc1` [Example 110a]: < 100 nM. For the compound `C[C@](C(=O)NC1CCC(F)(F)CC1)(c1cncnc1)N(C(=O)[C@H](F)Cl)c1cccc(OC(F)(F)F)c1` [Example 112a], the concentration for half-maximal inhibition (IC50) is 100 to 1000 nM. On the same count and under the same terms, next, `C[C@](C(=O)NC1CCOCC1)(c1cncnc1)N(C(=O)[C@H](F)Cl)c1ccc(SC(F)(F)F)cc1` [Example 34a]: < 100 nM; `C[C@](C(=O)NCCc1cccc(F)c1)(c1cncnc1)N(C(=O)[C@H](F)Cl)c1ccc(OC(F)(F)F)cc1` [Example 36a]: < 100 nM; `C[C@](C(=O)NC1CCC(F)(F)CC1)(c1cncnc1)N(C(=O)[C@H](F)Cl)c1ccc(S(F)(F)(F)(F)F)cc1` [Example 22a]: < 100 nM. For the compound `C[C@](C(=O)NC1CCC(F)(F)CC1)(c1cncnc1)N(C(=O)[C@H](F)Cl)c1ccc(OC(F)(F)C(F)(F)F)cc1` [Example 90a], the IC50 was < 100 nM.

With `C[C@@](C(=O)NC1CCOCC1)(c1cncc(F)c1)N(C(=O)[C@H](F)Cl)c1ccc(S(F)(F)(F)(F)F)cc1` [Example 97b], the IC50 is > 10000 nM. Regarding `CC1(C)C[C@@H](NC(=O)[C@@](C)(c2cncnc2)N(C(=O)[C@H](F)Cl)c2ccc(OC(F)(F)F)cc2)CCO1` [Example 77b], the IC50 is < 100 nM.

As for `C[C@@](C(=O)NC1CCOCC1)(c1cncnc1)N(C(=O)[C@H](F)Cl)c1ccc(S(F)(F)(F)(F)F)cc1` [Example 23b], the IC50 was < 100 nM. On to `C[C@@](C(=O)NC1CCC(F)(F)CC1)(c1cncc(F)c1)N(C(=O)[C@H](F)Cl)c1ccc(OC(F)(F)Cl)cc1` [Example 99b], for which the IC50 was 1000 to 10000 nM. Regarding `C[C@@](C(=O)NCCc1cccc(F)c1)(c1cncnc1)N(C(=O)[C@H](F)Cl)c1ccc(OC(F)(F)F)cc1` [Example 36b], the IC50 is > 10000 nM. Same read-out and setting: the same measure for `C[C@](C(=O)NC1CCOCC1)(c1cncnc1)N(C(=O)[C@H](F)Cl)c1ccc(C(F)(F)C(F)(F)F)cc1` [Example 108a]: 100 to 1000 nM; for `C[C@@](C(=O)NC1CCOCC1)(c1cncnc1)N(C(=O)[C@H](F)Cl)c1ccc(C(F)(F)C(F)(F)F)cc1` [Example 108b]: > 10000 nM. On the same count and under the same terms, next, `C[C@@](C(=O)NC1CCC(F)(F)CC1)(c1cncnc1)N(C(=O)[C@H](F)Cl)c1ccc2c(c1)OC(F)(F)O2` [Example 113b]: > 10000 nM; `C[C@@](C(=O)NC1CCC(F)(F)CC1)(c1cncnc1)N(C(=O)[C@H](F)Cl)c1ccc(SC(F)(F)F)cc1` [Example 33b]: 100 to 1000 nM; `CC1(C)COCC[C@@H]1NC(=O)[C@@](C)(c1cncnc1)N(C(=O)[C@H](F)Cl)c1ccc(OC(F)(F)F)cc1` [Example 76b]: 100 to 1000 nM.

In the case of `C[C@](C(=O)NC1CC(F)(F)C1)(c1cncnc1)N(C(=O)[C@H](F)Cl)c1ccc(OC(F)(F)F)cc1` [Example 18a], the IC50 was < 100 nM. Same read-out and setting: next, `C[C@](C(=O)NC1CCC(F)(F)CC1)(c1cncnc1)N(C(=O)[C@H](F)Cl)c1ccc(C2(C(F)(F)F)CC2)cc1` [Example 28a]: < 100 nM.

The experiment is the same for the next values; noted with them: M pro IC50, C-His6-tagged SARS-CoV-2 MPRO 25 nM, 30 min pre-incubation at RT, 60 min at 30° C., 10 doses from 25 μM.
In turn, `C[C@@](C(=O)NC1CCC(F)(F)CC1)(c1cncnc1)N(C(=O)[C@H](F)Cl)c1ccc(OC(F)(F)F)cc1F` [Example 26b] returned an IC50 of 1000 to 10000 nM. Same read-out and setting: the same measure for `C[C@@](C(=O)NC1CCC(F)(F)CC1)(c1cncc(F)c1)N(C(=O)[C@H](F)Cl)c1ccc(OC(F)(F)F)cc1` [Example 11b]: 1000 to 10000 nM; for `CC1(C)C[C@H](NC(=O)[C@](C)(c2cncnc2)N(C(=O)[C@H](F)Cl)c2ccc(OC(F)(F)F)cc2)CCO1` (single isomer, unassigned) [Example 77c]: 1000 to 10000 nM; for `Cn1ccc([C@@](C)(C(=O)NC2CCC(F)(F)CC2)N(C(=O)[C@H](F)Cl)c2ccc(OC(F)(F)F)cc2)cc1=O` (single isomer, unassigned) [Example 13b]: > 10000 nM. Same read-out and setting: the same measure for `CC1(C)COCC[C@H]1NC(=O)[C@](C)(c1cncnc1)N(C(=O)[C@H](F)Cl)c1ccc(OC(F)(F)F)cc1` (single isomer, unassigned) [Example 76c]: > 10000 nM.
